Measurements as given in patent publication US20090257987A1, “Method of generating dopamine-secreting cells” (Ramot At Tel Aviv University Ltd., priority 2008, published 2009).

What was measured:
human MSCs [1] = assay: Western blot analysis of TH protein expression after differentiation protocols; assay type: cell-based; settings: result in words
Method: MSC isolation, culture, and characterization: Fresh bone marrow aspirates harvested from the iliac crests of adult donors (age 19-76) were diluted with Hanks' balanced salt solution. Mononuclear cells were isolated by centrifugation in Unisep-Maxi tubes (Novamed, Jerusalem, Israel) by density gradient. The cells were then plated in Dulbecco's Modified Eagle's Medium (DMEM) supplemented with 15% fetal bovine serum (FBS), 2 mM glutamine, 100 μg/ml streptomycin, 100 units/ml penicillin, 12.5 units/ml nystatin (Biological Industries, Beit HaEmek, Israel) in polystyrene plastic 75-cm^2 tissue-culture flasks. After 24 hours, nonadherent cells were removed. The medium was changed every 3-4 days. Adherent cells were cultured to 70%-90% confluence and reseeded at a density of 5,000-10,000 cells/cm^2. The cells were maintained at 37° C. in a humidified 5% CO2 incubator. The MSCs were characterized for their cell-surface phenotype and their mesenchymal differentiation capacity, as previously described (Blondheim er al., 2006, Stem Cells Dev 15:141-164).
(§1) Induction of differentiation: The differentiation protocol was composed of 2 steps. In step 1, cells were transferred to serum-free medium (DMEM) supplemented with 2 mM glutamine, 100 μg/ml streptomycin, 100 units/ml penicillin, 12.5 units/ml nystatin (Biological Industries), N2 supplement (Invitrogen, New Haven, Conn.) and 20 ng/ml fibroblast growth factor 2 and epidermal growth factor (both from R&D Systems, Minneapolis, Minn.) for 48-72 hours. In step 2, the medium was changed to Basic induction medium containing Neurobasal, B27 (both from Invitrogen), in addition to 1 mM dibutyryl cyclic AMP (dbcAMP), 3-isobutyl-1-methyl-xanthine (IBMX), and 200 μM ascorbic acid (all from Sigma, St Louis, Mo.). The following factors were added to the Basic induction medium in different combinations: brain-derived neurotrophic factor (BDNF; 50 ng/ml), glial-derived neurotrophic factor (GDNF;10 ng/ml), neurturin (100 ng/ml), neurotrophin 3 (NT3; 50 ng/ml), and fibroblast growth factor 8 (FGF8; 100 ng/ml (all from Cytolab, Rehovot, Israel); transforming growth factor β3 (TGFβ3; 2 ng/ml), sonic hedgehog (Shh; 500 ng/ml, both from R&D); estrogen (0.1 μM, Sigma); and all-trans-retinoic acid (RA; 0.1 μM, Sigma).
Western blot: Total protein was extracted by suspending the harvested cells in lysis buffer containing 10 mM Tris base (U.S. Biochemical Corporation, Cleveland, Ohio), 5 mM EDTA (Merck, Whitehouse Station, N.J.), 140 mM sodium chloride (NaCl; BioLab, Jerusalem, Israel), 10 mM sodium fluoride (NaF; Sigma), 0.5% NP 40 (U.S. Biochemical Corporation), and 1 μM phenylmethylsulfonyl fluoride (PMSF; Sigma). Following incubation on ice for 30 minutes, the mixture was centrifuged and the supernatants were collected. Protein content was determined by the BCA protein assay kit (Pierce, Rockford, Ill.). Twenty-five micrograms of protein from each sample were subjected to sodium dodecyl-sulfate (SDS)-polyacrylamide gel electrophoresis (PAGE) (12.5% acrylamide), followed by electrophoretic transfer to nitrocellulose membrane (Schleicher & Schuell, Dassel, Germany). Membranes were probed by mouse anti-TH (1:10,000, Sigma) and mouse anti β-actin (1:10,000, Chemicon, Billerica, Mass.) and then by goat anti-mouse horseradish peroxidase conjugated antibody (1:10,000) (Jackson, West Grove, Pa.) and rabbit anti-emerin (1:5,000, Santa Cruz Biotechnology, Santa Cruz, Calif.), followed by goat anti-rabbit horseradish peroxidase conjugated secondary antibody (1:10,000, Sigma). Adequate controls included HeLa cells (ATCC, Manassas, Va.) as negative control and neuroblastoma M17 cells (BE (2)-M17, ATCC) as positive control. Proteins of interest were detected using the enhanced Super Signal® chemiluminescent detection kit (Pierce).

human MSCs [2] = assay: Cell death in culture on supplementation of antioxidants; assay type: cell-based; settings: antioxidant supplementation of differentiation medium; data not shown
Method: as §1

“estrogen [+estrogen, reference compound]” was tested, and the “TH protein expression level normalized to actin” value (human MSCs [1]) was “directly affected the TH protein expression level”.

sonic hedgehog [+SHH] was tested, and the “TH protein expression level normalized to actin” value (human MSCs [1]) was “directly affected the TH protein expression level”.

`COc1ccc(O)c(C(C)(C)C)c1` [BHA, butylated hydroxyanisole, reference compound] was tested, and the “cell death in the culture” value (human MSCs [2]) was “higher levels of cell death” and the “TH protein expression level normalized to actin” value (human MSCs [1]) was “did not facilitate upregulation”.

For `CC(=O)N[C@@H](CS)C(=O)O` [NAC, N-acetylcysteine, reference compound], the “cell death in the culture” value (human MSCs [2]) was “higher levels of cell death” and the “TH protein expression level normalized to actin” value (human MSCs [1]) was “did not facilitate upregulation”.

B1: glial-derived neurotrophic factor (protein, UniProt P39905 78-211, looked up)
Glial cell line-derived …: SPDKQMAVLPRRERNRQAAAANPENSRGKGRRGQRGKNRGCVLTAIHLNVTDLGLGYETKEELIFRYCSGSCDAAETTYDKILKNLSRNRRLVSDKVGQACCRPIAFDDDLSFLDDNLVYHILRKHSAKRCGCI
notes: glial-derived neurotrophic factor (10 ng/ml) added to the Basic induction medium
B1 was tested, and the “TH protein expression level normalized to actin” value (human MSCs [1]) was “directly affected the TH protein expression level”.

B2: transforming growth factor β3 (protein, UniProt P10600 301-412, looked up)
Transforming growth factor …: ALDTNYCFRNLEENCCVRPLYIDFRQDLGWKWVHEPKGYYANFCSGPCPYLRSADTTHSTVLGLYNTLNPEASASPCCVPQDLEPLTILYYVGRTPKVEQLSNMVVKSCKCS
notes: transforming growth factor β3 (2 ng/ml) added to the Basic induction medium
B2 was tested, and the “TH protein expression level normalized to actin” value (human MSCs [1]) was “directly affected the TH protein expression level”.
